From patent US7285680B2, “β-alanine derivatives and the use thereof” (Ono Pharmaceutical Co., Ltd., priority 2002, dated 2007)

Molecular target: human EDG-2 (Homo sapiens, UniProt Q92633)
Assay: Evaluation of EDG-2 antagonistic activity by monitoring the change of intracellular calcium ion concentration
Assay type: cell-based
Settings: CHO cells overexpressing human EDG-2 gene; LPA final concentration 100 nM; Fura2-AM intracellular calcium; compound 1 nM to 10 μM
Experimental: Evaluation of EDG-2 Antagonistic Activity by Monitoring the Change of Intracellular Calcium Ion Concentration
Evaluation of EDG-2 antagonistic activity was carried out by using Chinese hamster ovary (CHO) cells which overexpressed human EDG-2 gene. Those cells were cultured with Ham's F12 medium (GIBCO BRL company No.11765-047) containing 10% FBS (fetal bovine serum), penicillin/streptomycin and blasticidin (5 μg/ml). At first in order to uptake Fura2-AM (Dojindo company No.348-05831) into the cells, cells were incubated for 60 minutes at 37 degrees in Fura2-AM (5 μM) solution [Ham's F12 medium containing 10% FBS, 20 mM HEPES buffer (pH 7.4) and 2.5 mM probenecid (Sigma company No.P-8761)]. […] Plates were set in fluorescent drug screening system (Hamamatsu photonics company, FDSS-2000) and intracellular calcium ion concentration was measured for 30 seconds with no stimulation and then solution of the compound of the present invention represented by formula (I) was added. Five minutes after adding thereto LPA (final concentration: 100 nM) was added, the increase of intracellular calcium ion concentrations before and after the addition of LPA (excitation wave length: […]; fluorescent wave length: 500 nm) were measured every 3 seconds. […]

Sequence of human EDG-2 (Q92633 whole entry): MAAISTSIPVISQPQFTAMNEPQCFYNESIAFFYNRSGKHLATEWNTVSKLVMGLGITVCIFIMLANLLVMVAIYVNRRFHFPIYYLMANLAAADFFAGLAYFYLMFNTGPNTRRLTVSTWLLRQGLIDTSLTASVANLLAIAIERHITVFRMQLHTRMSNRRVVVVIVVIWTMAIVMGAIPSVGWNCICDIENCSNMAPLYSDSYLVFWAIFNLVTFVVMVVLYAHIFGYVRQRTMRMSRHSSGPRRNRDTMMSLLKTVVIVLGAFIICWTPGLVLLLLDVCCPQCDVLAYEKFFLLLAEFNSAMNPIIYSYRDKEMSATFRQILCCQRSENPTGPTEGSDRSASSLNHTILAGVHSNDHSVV

Row | SMILES | IC50
1 | COc1ccc(OC)c(CCN(CCC(=O)O)C(=O)c2ccccc2-c2ccccc2C(=O)NCc2cccnc2)c1 [Example 3(1), 3-(N-((2-(2-((pyridin-3-ylmethylamino)carbonyl)phenyl)phenyl)carbonyl)-N-(2-(2,5-dimethoxyphenyl)ethyl)amino)propanoic acid] | 780 nM
2 | COc1ccc(OC)c(CCN(CCC(=O)O)C(=O)c2ccccc2-c2ccccc2C(=O)NCc2ccc(Cl)cc2)c1 [Example 3, 3-(N-((2-(2-((4-chlorobenzylamino)carbonyl)phenyl)phenyl)carbonyl)-N-(2-(2,5-dimethoxyphenyl)ethyl)amino)propanoic acid] | 410 nM
